We go through 14 substances from patent US20070203060A1, “Casein Derived Peptides And Therapeutic Uses Thereof” (priority 2004, published 2007).

Entries after “also recorded” stand apart in the source; their conditions may differ. A value given as a limit tells only on which side of the number the result lay.

In assay [1] the test system is murine primary bone marrow cells (CFU-GEMM). The assay can be described thus: Multipotential colonies (CFU-GEMM) from murine bone marrow cells, colony and differential counts. The class given is cell-based, mouse. Conditions: for Early (E.MK) megakaryocyte formation (in words): 25 μg or more, 14 days; for Early (E.MK) megakaryocyte formation (in words) / increase in total megakaryocyte proliferation over controls: FIG. 21; for increase in total megakaryocyte proliferation over controls: differential count; for megakaryocyte formation and development (in words): 8 days treatment. How it is done: Proliferation of megakaryocytes in multipotential colonies (CFU-GEMM) from murine Bone Marrow cells: Primary bone marrow cells (1×10^5 per ml) from 8-12 week-old C3H/HeJ mice were grown in serum-free methyl cellulose-IMDM medium for 8-9 days at 5% CO2, 95% air, at 37° C. The medium, appropriate for the growth of multipotential colonies (CFU-GEMM), contained 1% BSA (Sigma), 10^−4 M thioglycerol (Sigma), 2.8×10^−4 M human transferrin (TF, Biological industries, Israel), 10% WEHI-CM as a source of IL-3 and 2 units per ml erythropoietin (rhEPO, R & D Systems, Minneapolis). […] They were picked with a micropipette, cytocentrifuged and stained with May-Grunwald-Giemsa for differential counts. At least 700 cells were counted for each preparation. […]

Assay [2] deals with platelets of myeloablated, bone marrow transplanted mice. The assay is described as follows: Platelet reconstitution in irradiated bone marrow transplant recipient mice. To be noted: for enhancement of platelet counts compared to control mice: F1 mice, 750 cGy, 1 mg i.v., 10 days post-transplantation; for increase in platelet counts over untreated controls / platelet count: 800 cGy, 4 daily i.p. injections; for increase in platelet counts over untreated controls: 100 μg per mouse. The class given is in vivo, mouse. Here is the method:
Leukocyte and platelet reconstitution in bone marrow transplant recipient mice: BALB/c mice were sub-lethally irradiated at a source to skin distance of 70 cm, dosage of 50 cGy per minute, for a total of 600 cGy. The irradiated mice were reconstituted with syngeneic bone marrow as described above and injected intravenously 24 hours later with 1 mg per animal peptides derived from natural casein, synthetic peptides derived from casein (13-26 amino acids, see Table 3 above), or human serum albumin (controls), following a double-blinded protocol. Leukocyte reconstitution was determined according to cell count in peripheral blood collected at indicated intervals from 6 to 12 days post treatment. Platelet reconstitution was determined by cell count in blood collected from the retro orbital plexus, into EDTA-containing vials, at indicated intervals from day 6 to day 15 post treatment.
In an additional series of experiments, CBA mice were lethally irradiated (900 cGy), reconstituted with BM cells and treated with peptides derived from natural casein or human serum albumin as described above. Platelet reconstitution was assayed as mentioned above.
[…] Platelet reconstitution was assayed at 10 and 12 days post-transplantation.

The test system of assay [3] is human Peripheral Blood Stem Cells / K562 target cells. The assay can be described thus: NK activity of cultured human PBSC (35S release from K562 target cells). The format is cell-based. Here is the method:
From human Peripheral Blood Stem Cells (PBSC): PBSC of G-CSF treated subjects were separated on a FICOLL gradient, washed twice with RPMI-1640 medium containing 10% FCS and glutamine, and seeded into 1.5 ml wells with or without peptides derived from natural casein or synthetic peptides derived from casein, as indicated, (0-500 μg per ml). Following two days incubation the cells were assayed for Natural Killer activity by measuring radioactivity released from ^35S-labeled K562 target cells (NEG-709A, 185.00 MBq, 2.00 mCi EASYTAGth Methionine, L-[^35S] 43.48 TBq per mmol, 1175.0 Ci per mmol, 0.488 ml, Boston USA). Two concentrations of effector cells (2.5×10^5 and 5×10^5 cells per well) were incubated with 5×10^3 target cells per well (effector:target cell ratios of 50:1 and 100:1, respectively) in U-bottomed 96 well tissue culture plates. The cells were incubated for 5 hours at 37° C. in 5% CO2, 95% air and precipitated by 5 minutes centrifugation at 1000 rpm. ^35S release was measured in 50 μl samples of the supernatant liquid.

Assay [4] concerns HIV-1 infection of CEM cells. The assay is described as follows: Inhibition of in vitro HIV-1 infection of CEM lymphocytes (cell counts, P24 antigen assay). The class given is cell-based. Here is the method: Peptides: Peptides (either peptides derived from natural casein or synthetic peptides derived from casein (2-26 amino acids in length, see table 3) supplied as lyophilized powder were resuspended in RPMI complete medium and added to cell cultures at a final concentrations of 50 to 1000 μg per ml.
Cells: Several types of freshly isolated human cells (primary cells) and cell lines are known to be susceptible to in vitro HIV-1 infection, although essentially any cell displaying even low surface levels of the CD4molecule can be considered a potential target for HIV-1 infection. Two commonly used human cell lines which are highly sensitive for HIV-1 infection were chosen, CEM and Sup-T1.
CEM is a human T4-lymphoblastoid cell line initially derived by G. E. Foley et al. [(1965), Cancer 18:522] from peripheral blood buffy coat of a person with acute lymphoblastic leukemia. These cells were continuously maintained in suspension in medium, and have been used widely for analysis of infectivity, antiviral agents and neutralizing antibodies.
Virus: The HIV virus strain employed was HIV-1IIIB, originally designated HTLV-IIIB. Concentrated culture fluids of peripheral blood from several patients with AIDS or related diseases were used to establish a permanent productive infection in H-9 cells. This subtype B virus has high capacity to replicate in human T-cell lines. Viral titer was 5.38 ng per ml in stock solution.
HIV-1 P^24 antigen capture assay: An HIV-1 P^24 Antigen capture assay kit employed was designed to quantitate the HIV-1 P^24 core antigen, which is proportionally related to the degree of viral production in cells. This kit was purchased from the AIDS Vaccine program of the SAIC-NCI-Frederick Cancer Research Institute, P.O. Box B, Frederick, Md. 21702, USA and included 96 well plates coated with monoclonal antibody to HIV-1 P^24, primary antibody-rabbit anti-HIV P^24 serum, secondary antibody-Goat anti-rabbit-IgG (H+ L) peroxidase conjugated antibody, TMB peroxidase substrate system and lysed HIV-1 P^24 standard. The HIV-1 P^24 antigen capture assay was analyzed by Organon-Technica ELISA reader at 450 nm with a reference at 650 nm.
HIV-1 P^24 antigen capture ELISA: HIV infection was measured with an indirect enzyme immunoassay which detects HIV-1 P^24 core antigens in tissue culture media. Tissue culture supernatant was reacted with primary rabbit anti-HIV-1 P^24 antigen and visualized by peroxidase conjugated goat anti rabbit IgG. The reaction was terminated by adding 4N H2SO4, wherein the intensity of the color developed is proportional to the amount of HIV-1 antigen present in the tissue culture supernatant.
HIV infection of human cultured CD4 cells: For longer incubations, the cells (CEM, Sup-T1) were preincubated with several increasing concentrations of peptides derived from natural casein (50-1000 μg per ml) or synthetic peptides derived from casein (10-500 μg per ml) for 24 (for synthetic and natural peptides) and 48 (only for natural peptides) hours and HIV-1IIIB (45 pg per ml final concentration) was added to each well thereafter. For the shorter incubations (3 hours), HIV-1IIIB was preincubated with the peptides for 3 hours and then added to cells (5000 cells/well) in tissue culture plates. Controls were IF (Infected, cells cultured with HIV-1 and without peptides), UIF (Uninfected, cells cultured without HIV-1 and without peptides) and UIF+Ch (Uninfected+peptides derived from natural casein, cells cultured in the presence of peptides derived from natural casein {50-1000 μg per ml}) to test the effect of peptides derived from natural casein and synthetic peptides derived from casein on cell viability and growth. Cells were counted for viability and proliferation rate on day 7, 10 and day 14 post infection (the day of P^24 antigen culture supernatant harvest). Cells and tissue culture supernatants (media) were harvested and lysed immediately in 1/10 volume of 10% Triton X-100. […]

For assay [5], the system named is glucose metabolism in NOD mice. The assay is described as follows: Intraperitoneal Glucose Tolerance Test (IPGTT) in NOD mice. The format is in vivo, mouse. Conditions: healthy NOD mice after 25 weeks. Here is the method: Intraperitoneal Glucose Tolerance Test (IPGTT): The glucose tolerance test is the definitive method for investigating glucose metabolism and diabetic tendencies in mammals. Twenty five (25) weeks after receiving Synthetic peptides derived from casein, response to a glucose load was assessed with an intraperitoneal glucose tolerance test. Glucose injection consisted of 1 g/kg body weight. Glycemic values were determined from blood drawn prior to test (0 minutes) and 60 minutes after loading.

Assay [6] relates to peripheral white blood cells of myeloablated, bone marrow transplanted mice. The assay can be described thus: Leukocyte reconstitution in irradiated bone marrow transplant recipient mice. The class given is in vivo, mouse. To be noted: for peripheral white blood cell count: BALB/c, 600 cGy, 1 mg per mouse i.p.; for early leukocyte reconstitution (in words): F1 mice, 750 cGy, 1 mg i.v., 5 and 7 days post-transplantation.

The subject of assay [7] is human bone marrow progenitor cells (CFU-GM). The assay can be described thus: CFU-GM colonies from human bone marrow progenitor cells with IL-3 and G-CSF. The format is cell-based. Conditions: 300 μg/ml, G-CSF and IL-3, 14 days. How it is done: Cells were scored in the macroscopic colonies grown from human bone marrow cells prepared similarly to the CFU-GEMM colonies previously described. Cells were incubated with hematopoietic factors cytokine (IL-3) and colony stimulating factor (G-CSF), and 25 μg or more of synthetic peptides derived from casein: peptide J, representing amino acids 1-22 of α-S1 casein (SEQ ID NO. 21), or β-casein, representing amino acids 193-208 of β-casein (SEQ ID No. 28). Exposure of the human bone marrow progenitor cells to peptides derived from casein was for 14 days. Stimulation of colony formation (CFU) is expressed as the number of myeloid per colonies in 10^5 plated MNCs. Note the synergistic increase (>50% with 100 μg/ml of peptide J, and >30% with 300 μg/ml of synthetic β-casein) in myelocyte formation in cultures exposed to G-CSF, IL-3 and the synthetic peptides derived from β-casein and an N terminal portion of α-S1 casein.
A similar effect of synthetic peptides derived from α-, β- or κ-casein was observed on the proliferation of granulocytes and macrophages from human bone marrow progenitor cells. […] (FIG. 20). Thus, synthetic peptides derived from αS1-, αS2-, β- or κ-casein or combinations thereof are effective in augmenting the effect of granulopoietic factors such as G-CSF on bone marrow hematopoietic progenitor cell differentiation and expansion.

Take MAIPPKKNQDKTEIPTINTIAS [κ 106-127]: in assay [1], the “Early (E.MK) megakaryocyte formation (in words)” value was “dramatic effect” and the “increase in total megakaryocyte proliferation over controls” value came out at 21%. For the same substance, the “enhancement of platelet counts compared to control mice” value in assay [2] (listed as SEQ ID NO: 30) was 26%.
RPK [1P]: the figures for the “patients responding (of the 5 tested)” value in assay [3] (25 μg/ml peptide), in assay [3] (100 μg/ml peptide) and in assay [3] (250 μg/ml peptide) were 3, 1 and 1, respectively. Also, the “target cell lysis, fold that of untreated controls” value in assay [3] (PBS cells from donors with hematopoietic disease) is reported as at least 2 fold. Also, the HIV-P24 antigen in assay [4] (100 μg/ml, 7 days post infection, untreated control 0.52) came to 0.17 ng P^24 Antigen/ml; in assay [4] (500 μg/ml, 7 days post infection, untreated control 0.52) it was 0.14 ng P^24 Antigen/ml.
Turning to RPKHP [3P], in assay [1], the “megakaryocyte formation and development (in words)” value is “significant increase”. The HIV-P24 antigen in assay [4] (virus pre-treated 3 hours, 10 μg per ml, 7 days post infection, control 0.52) came out at 0.26 ng P^24 Ag per ml; in assay [4] (virus pre-treated 3 hours, 25 μg per ml, 7 days post infection, control 0.52), 0.18 ng P^24 Ag per ml.
Turning to RPKHPI [4P], in assay [1], the “megakaryocyte formation and development (in words)” value is “significant increase”. Also, in assay [2] (12 days post transplantation), the “increase in platelet counts over untreated controls” value amounted to 29% and the platelet count stood at 872000 mL⁻¹. For the same substance, in assay [4] (virus pre-incubated 3 hours, 7 days post infection), the “HIV-P24 antigen (in words)” value is given as “dose dependent reduction”. In assay [4] (virus pre-treated 3 hours, 250 μg per ml, infected control 1.06×10^6), the cell counts is recorded as 1.59×10^6.
As to RPKHPIKHQ [X], in assay [5], the “glucose tolerance (IPGT) test result in words” value was “no evidence of abnormal glucose metabolism”.
Take RPKHPIKHQGL [2a]: the “megakaryocyte formation and development (in words)” value in assay [1] is recorded as “significant increase”.
As to RPKHPIKHQGLP [3a], the “megakaryocyte formation and development (in words)” value in assay [1] is recorded as “significant increase”. In addition, the results for the “increase in platelet counts over untreated controls” value in assay [2] (10 days post transplantation) and in assay [2] (12 days post transplantation) were “up to 35.5%” and “up to 13.5%”, respectively. Further, the platelet count in assay [2] (10 days post transplantation) was 229000 mL⁻¹; in assay [2] (12 days post transplantation), 622000 mL⁻¹.
Regarding RPKHPIKHQGLPQEVLN, in assay [1], the “megakaryocyte formation and development (in words)” value is given as “significant increase”.
For RPKHPIKHQGLPQEVLNE [F], in assay [1], the “megakaryocyte formation and development (in words)” value was “significant increase”.
RPKHPIKHQGLPQEVLNENL: in assay [1], the “megakaryocyte formation and development (in words)” value is “significant increase”.
As for RPKHPIKHQGLPQEVLNENLL, the “megakaryocyte formation and development (in words)” value in assay [1] is on record as “significant increase”.
Turning to RPKHPIKHQGLPQEVLNENLLR [J], the “Early (E.MK) megakaryocyte formation (in words)” value in assay [1] is given as “dramatic effect”. Also, the “peripheral white blood cell count” value in assay [6] (day 10) is 2.74 ×10^6 cells per ml; in assay [6] (day 12), 5.20 ×10^6 cells per ml. The “early leukocyte reconstitution (in words)” value in assay [6] (listed as SEQ ID NO: 21) was “dramatic enhancement; also recorded: strong stimulation”.
Take RPKHPIKHQGLPQEVLNENLLRFF: the “megakaryocyte formation and development (in words)” value in assay [1] is listed as “significant increase”.
YQEPVLGPVRGPFPII [β 193-208]: in assay [1], the “Early (E.MK) megakaryocyte formation (in words)” value is reported as “dramatic effect” and the “increase in total megakaryocyte proliferation over controls” value worked out at 32%. The “enhancement of granulopoietic stimulating effect of G-CSF (myelocyte formation)” value in assay [7] (listed as SEQ ID NO: 28) amounted to 30%. The “enhancement of granulopoietic stimulating effect of G-CSF (myelocyte formation)” value in assay [7] (listed as synthetic β-casein) was above 30%. Also, the “early leukocyte reconstitution (in words)” value in assay [6] (listed as SEQ ID NO: 28) is “dramatic enhancement; also recorded: strong stimulation”. Also, in assay [2] (listed as SEQ ID NO: 28), the “enhancement of platelet counts compared to control mice” value was 32%.
